# Assays:
# [1] = Radio-metabolism, fraction intact post-injection; format: in vivo; details: at the 90 minute post-injection
# [2] = In-vivo PET imaging in bleomycin treated rat model, LPA1 target engagement (% displacement); details: Sprague Dawley, rat, lung, intravenous, bleomycin treated rats, baseline
# Procedure: (§1) [^18F]-(1S,3S)-3-(((6-(5-((((4-(fluoro)butyl)(methyl)carbamoyl)oxy)methyl)-1-methyl-1H-1,2,3-triazol-4-yl)-2-methylpyridin-3-yl)oxy)cyclohexane-1-carboxylic acid was tested to confirm its properties, specificity and targeting of the LPA1 receptor in aged-matched wild type (Sprague Dawley rat, Charles River Laboratory, PA) and bleomycin-induced pulmonary fibrosis rat models. The bleomycin-induced pulmonary fibrosis rat model was generated in anesthetized rats that were administered bleomycin (2 μL/g) via oropharyngeal instillation. For oropharyngeal instillation, anesthetized rats (isoflurane, 4% in 100% 02) were placed on a slanted board/tilting workstation and bleomycin was dripped onto the vocal cords, facilitating aspiration. Rats were then returned to their cages until they fully recovered from anesthesia and were monitored daily for the duration of the experiment. In this experiment, the [^18F]-labeled LPA1 antagonist, produced as described in the above Examples, was tested for its ability to discriminate between normal lung in wild type rats and increased lung LPA1 expression in the bleomycin rat disease model. The bleomycin treated rats were used at 14 and 15 days post bleomycin treatment. […] For PET image acquisition, rats were placed in an anesthetic induction chamber and 3% isoflurane inhalant anesthesia was delivered in 100% O2 at a rate of 1-1.5 L/min. Once sedated, the rats were removed from the induction chamber and placed into a plexiglass 2-chamber holder (custom-made by BMS-Applied Biotechnology group) within the gantry of the PET system (microPET® F220™, Siemens Preclinical Solutions, Knoxville, Tenn.) where they remained for the duration of the study. Anesthesia was maintained with 1-1.5% isoflurane inhalant anesthesia delivered in 100% 02 at a rate of 2 L/min via the nose-cone. Animals were kept warm using an external standalone temperature regulating unit (M2M Imaging Corp) to prevent hypothermia during imaging. Rat respiration was continuously monitored during imaging procedures and isoflurane was adjusted dependent on depth of anesthesia. A 10-minute transmission image was first acquired using a ^57Co point source for the purpose of attenuation correction of the final PET images and confirmation of lung localization for region of interest (ROI) analysis. The scanning region was located beginning at the neck area and extending toward the hind limbs of each animal in order to place the lungs within the 7.6 cm microPET system axial field of view (FOV). Upon completion of the transmission scan, each rat received administration of between 19.5-29.7 MBq (542-803 μCi) of [^18F]-(1S,3S)-3-(((6-(5-((((4-(fluoro)butyl)(methyl) carbamoyl)oxy)methyl)-1-methyl-1H-1,2,3-triazol-4-yl)-2-methylpyridin-3-yl)oxy)cyclohexane-1-carboxylic acid tracer via tail vein catheter followed by a 2 hour dynamic PET emission scan. […] Images were reconstructed using a maximum a posteriori (MAP) algorithm with attenuation correction using the collected transmission images and corrected for radioisotope decay. The PET images were then co-registered with corresponding transmission images using anatomical landmarks (air in lung) and boundaries of the animal holder. Images were analyzed by Inveon Research Workstation (Siemens Medical Solutions USA Inc., PA). Analysis for each rat was done with regions of interest (ROIs) drawn onto each whole lung and a section of the liver using the co-registered transmission images. There were 3-4 ROIs drawn for each lung volume (left whole lung and right whole lung) as well as 3 ROIs drawn on a section of the liver. ROIs were drawn inside the whole lung to avoid spillover signal from the heart and liver. ROIs were drawn on a section of the liver using the same method. Based on quantitative values from these ROIs (nCi/cc), % injected dose/cc (% ID/g) was calculated. Radiotracer uptake was compared across lung tissues in these groups using the time periods between 60-90 minutes post radioligand injection. […]
# LPA1 = LPA1 (Rattus norvegicus, UniProt P61794); test: as above; details: bleomycin treated rats
# Sequence of LPA1 (P61794 whole entry): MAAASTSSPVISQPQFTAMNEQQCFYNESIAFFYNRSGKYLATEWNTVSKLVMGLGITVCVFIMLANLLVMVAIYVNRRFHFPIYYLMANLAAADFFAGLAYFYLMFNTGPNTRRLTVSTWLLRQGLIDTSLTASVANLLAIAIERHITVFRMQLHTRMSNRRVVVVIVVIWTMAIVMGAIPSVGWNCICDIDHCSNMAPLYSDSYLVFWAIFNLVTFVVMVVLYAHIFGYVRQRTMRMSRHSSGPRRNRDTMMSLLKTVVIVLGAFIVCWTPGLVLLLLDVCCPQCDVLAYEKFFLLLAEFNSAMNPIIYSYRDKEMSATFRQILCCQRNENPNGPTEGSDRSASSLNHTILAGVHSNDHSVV
# Procedure: as §1
compound,measurement,setting,value
Cc1nc(-c2nnn(C)c2COC(=O)N(C)CCCC[18F])ccc1O[C@H]1CCC[C@H](C(=O)O)C1 [Example 16],"radio-metabolism, intact",[1],80%
same,tissue uptake,"[2]; 1 mg/kg, Group 1 (1 mg/kg group, n=6)",0.12 ± 0.01 %ID/g
same,tissue uptake,"[2]; 3 mg/kg, Group 2 (3 mg/kg group, n=6)",0.1 ± 0.01 %ID/g
same,tissue uptake,"[2]; 10 mg/kg, Group 3 (10 mg/kg group, n=6)",0.12 ± 0.02 %ID/g
same,tissue uptake,"[2]; 30 mg/kg, Group 4 (30 mg/kg group, n=7)",0.09 ± 0.01 %ID/g
same,tissue uptake,"[2]; 100 mg/kg, Group 5 (100 mg/kg group, n=6)",0.1 ± 0.01 %ID/g
same,"Baseline % ID/g in Lung, Mean","LPA1; Group 1 (1 mg/kg group, n=6), listed as [^18F]-(1S,3S)-3-(6-(5-((((4-(fluoro)butyl)(methyl)carbamoyl)oxy)methyl)-1-meth, 1 mg/kg))",0.12 % ID/g
same,"Baseline % ID/g in Lung, Mean","LPA1; Group 2 (3 mg/kg group, n=6), listed as [^18F]-(1S,3S)-3-(6-(5-((((4-(fluoro)butyl)(methyl)carbamoyl)oxy)methyl)-1-meth, 3 mg/kg))",0.10 % ID/g
same,"Baseline % ID/g in Lung, Mean","LPA1; Group 3 (10 mg/kg group, n=6), listed as [^18F]-(1S,3S)-3-(6-(5-((((4-(fluoro)butyl)(methyl)carbamoyl)oxy)methyl)-1-meth, 10 mg/kg))",0.12 % ID/g
same,"Baseline % ID/g in Lung, Mean","LPA1; Group 4 (30 mg/kg group, n=7), listed as [^18F]-(1S,3S)-3-(6-(5-((((4-(fluoro)butyl)(methyl)carbamoyl)oxy)methyl)-1-meth, 30 mg/kg))",0.09 % ID/g
same,"Baseline % ID/g in Lung, Mean","LPA1; Group 5 (100 mg/kg group, n=6), listed as [^18F]-(1S,3S)-3-(6-(5-((((4-(fluoro)butyl)(methyl)carbamoyl)oxy)methyl)-1-meth, 100 mg/kg))",0.10 % ID/g

# — patent US20210379210A1, “RADIOLIGANDS FOR IMAGING THE LPA1 RECEPTOR” (BRISTOL-MYERS SQUIBB COMPANY, priority 2018, published 2021)
